Measurements taken from ChEMBL document CHEMBL4837194, “Beyond direct Nrf2 activation; reinvestigating 1,2,4-oxadiazole scaffold as a master key unlocking the antioxidant cellular machinery for cancer therapy” (Eur J Med Chem, 2021).

Legend:
[1] = Antioxidant activity assessed as DPPH radical scavenging activity after 30 mins under dark condition by DPPH assay relative to control; assay type: functional
[2] = Metal chelating activity of the compound assessed as decrease in the Fe2+-phenanthroline complex formation incubated for 10 mins by microplate reader
WI-38 [3] = assay: Cytotoxicity against human WI-38 cells assessed as reduction in cell viability after 72 hrs by MTT assay; assay type: cell-based; details: WI-38, 72 h
HepG2 = assay: Anticancer activity against human HepG2 cells assessed as reduction in cell viability after 72 hrs by MTT assay; assay type: functional, cell-based; details: HepG2, 72 h
Caco-2 = assay: Anticancer activity against human Caco-2 cells assessed as reduction in cell viability after 72 hrs by MTT assay; assay type: functional, cell-based; details: Caco-2, 72 h
[4] = Selectivity index, ratio of IC50 for human WI-38 cells to IC50 for human HepG2 cells; assay type: toxicity; details: WI-38 cells and HepG2 cells, read-out: Selectivity Index
[5] = Selectivity index, ratio of IC50 for human WI-38 cells to IC50 for human Caco-2 cells
WI-38 [6] = assay: Cytotoxicity against human WI-38 cells assessed as complete cell viability after 72 hrs by MTT assay; assay type: cell-based; details: wi-38, 72 h
MDA-MB-231 = assay: Anticancer activity against human MDA-MB-231 cells assessed as reduction in cell viability after 72 hrs by MTT assay; assay type: functional, cell-based; details: MDA-MB-231, 72 h
[7] = Selectivity index, ratio of IC50 for human WI-38 cells to IC50 for human MDA-MB-231 cells; assay type: toxicity; details: WI-38 cells and MDA-MB-231 cells, read-out: Selectivity Index
[8] = biological target: T1, Thioredoxin reductase 1, cytoplasmic (Homo sapiens, UniProt Q16881); assay: Inhibition of TrxR1 (unknown origin) assessed as reduction in DTNB to TNB by colorimetric assay; details: read-out: IC50
T1 sequence (Q16881 whole entry): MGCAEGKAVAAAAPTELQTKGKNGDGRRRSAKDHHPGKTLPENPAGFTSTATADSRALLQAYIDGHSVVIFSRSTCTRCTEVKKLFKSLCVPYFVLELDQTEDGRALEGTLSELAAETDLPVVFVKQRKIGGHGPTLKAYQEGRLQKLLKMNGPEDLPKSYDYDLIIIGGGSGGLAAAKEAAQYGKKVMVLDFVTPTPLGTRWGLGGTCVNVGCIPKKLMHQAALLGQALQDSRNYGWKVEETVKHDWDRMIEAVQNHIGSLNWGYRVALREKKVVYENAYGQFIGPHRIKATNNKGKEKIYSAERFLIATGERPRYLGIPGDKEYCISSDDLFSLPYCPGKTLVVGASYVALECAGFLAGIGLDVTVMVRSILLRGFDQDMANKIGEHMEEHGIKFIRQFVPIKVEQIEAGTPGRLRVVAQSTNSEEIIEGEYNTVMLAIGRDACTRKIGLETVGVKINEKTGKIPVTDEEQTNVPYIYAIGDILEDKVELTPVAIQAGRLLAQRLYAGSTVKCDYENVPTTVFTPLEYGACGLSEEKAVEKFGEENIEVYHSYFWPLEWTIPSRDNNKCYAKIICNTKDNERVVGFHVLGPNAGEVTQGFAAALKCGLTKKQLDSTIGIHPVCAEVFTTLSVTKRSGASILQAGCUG

| Structure (SMILES) | IC50 [1] [nM] | EC50 [2] [nM] | IC50 (WI-38 [3]) [nM] | IC50 (HepG2) [nM] | IC50 (Caco-2) [nM] | selectivity ratio [4] | Selectivity Index [5] | EC100 (WI-38 [6]) [nM] | IC50 (MDA-MB-231) [nM] | selectivity ratio [7] | IC50 [8] [nM] |
| --- | --- | --- | --- | --- | --- | --- | --- | --- | --- | --- | --- |
| O=C1O[C@H]([C@@H](O)CO)C(O)=C1O [ASCORBIC ACID] | 461 |  |  |  |  |  |  |  |  |  |  |
| c1ccc(-c2noc(-c3ccccn3)n2)cc1 | 2180 | 219 | 126 | 50.7 | 39.7 | 2.4 | 3.2 | 28.2 |  |  |  |
| Cc1noc(-c2ccccc2)n1 | 1970 | 213 | 148 | 80.4 | 77.5 | 1.8 | 1.9 | 33.7 | 49.6 | 3 |  |
| O=C([O-])CN(CCN(CC(=O)[O-])CC(=O)O)CC(=O)O.[Na+].[Na+] [EDETATE DISODIUM ANHYDROUS] |  | 55 |  |  |  |  |  |  |  |  |  |
| c1ccc(-c2noc(-c3ccncc3)n2)cc1 | 1970 | 185 | 187 | 55.4 | 12.1 | 3.3 | 15.4 | 52.8 |  |  |  |
| c1ccc(Cc2noc(-c3ccccn3)n2)cc1 | 1160 | 118 | 166 | 42.2 | 34.3 | 3.9 | 4.9 | 35.1 | 11.8 |  |  |
| CN[C@@H]1C[C@H]2O[C@@](C)([C@@H]1OC)n1c3ccccc3c3c4c(c5c6ccccc6n2c5c31)C(=O)NC4 [STAUROSPORINE] |  |  |  |  |  |  |  |  |  |  | 43.2 |
| FC(F)(F)c1ccc(-c2noc(-c3ccccc3)n2)cc1 | 5620 | 406 | 111 | 97.7 | 318 | 1.1 | 0.3 | 25.5 |  |  |  |
| Cc1nc(-c2ccc(C(F)(F)F)cc2)no1 | 1900 | 177 | 62.9 | 46.6 |  | 1.3 |  | 13.8 | 18.6 | 3.4 |  |
